The target in assay [1] is T1, human DGKα (Homo sapiens, UniProt P23743).
T1 construct: TVMV protease cleavage site (C); Hexa-His (C); made in house; host or cells: Sf9 insect cells (baculovirus, Bac-to-Bac)
Put plainly: DGKα LIPGLO assay (extruded liposome substrate), in vitro DGK inhibition. In kind it is biochemical. As to conditions: DGKα liposome (LIPGLO) assay; read-out: DGKa LIPGLO IC50.

Assay [2] deals with Human venous whole blood. As to the kind of experiment: Human whole blood IFN-γ assay.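 Further: blood from healthy donors exposed to compound for 1 h before stimulation with anti-CD3 and anti-CD28 at 1 µg/mL each, IFN-γ quantified in supernatant by AlphaLISA.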 The format is cell-based. As to conditions: human whole blood, anti-CD3 plus anti-CD28, 24 hours, 3 μM reference compound = 100% activation, read-out: INFg Whole Blood Normalized Agonist EC50.
Experimental: Human Whole Blood IFN-γ Assay
Human venous whole blood (22.5 μL per well), obtained from healthy donors, was pre-treated with compounds for one hour at 37° C. in a humidified 95% air/5% CO2 incubator. The blood was stimulated with 2.5 μL anti-human CD3 and anti-CD28 mAb at a final concentration of 1 μg/mL each for 24 hours at 37° C. IFN-γ in the supernatants was measured using AlphLISA kit (Cat # AL217).
Assay [3] concerns the target T2, human DGKζ (Homo sapiens, UniProt Q13574).
T2 construct: TVMV protease cleavage site (C); Hexa-His (C); made in house; host or cells: Sf9 insect cells (baculovirus, Bac-to-Bac)
Put plainly: DGKζ LIPGLO assay (extruded liposome substrate), in vitro DGK inhibition. The format is biochemical. As to conditions: DGKζ liposome (LIPGLO) assay; read-out: DGKz LIPGLO IC50.

Like-named read-outs stand apart in the source and are kept apart here.

T1 sequence (P23743 with tags, fused parts or gaps): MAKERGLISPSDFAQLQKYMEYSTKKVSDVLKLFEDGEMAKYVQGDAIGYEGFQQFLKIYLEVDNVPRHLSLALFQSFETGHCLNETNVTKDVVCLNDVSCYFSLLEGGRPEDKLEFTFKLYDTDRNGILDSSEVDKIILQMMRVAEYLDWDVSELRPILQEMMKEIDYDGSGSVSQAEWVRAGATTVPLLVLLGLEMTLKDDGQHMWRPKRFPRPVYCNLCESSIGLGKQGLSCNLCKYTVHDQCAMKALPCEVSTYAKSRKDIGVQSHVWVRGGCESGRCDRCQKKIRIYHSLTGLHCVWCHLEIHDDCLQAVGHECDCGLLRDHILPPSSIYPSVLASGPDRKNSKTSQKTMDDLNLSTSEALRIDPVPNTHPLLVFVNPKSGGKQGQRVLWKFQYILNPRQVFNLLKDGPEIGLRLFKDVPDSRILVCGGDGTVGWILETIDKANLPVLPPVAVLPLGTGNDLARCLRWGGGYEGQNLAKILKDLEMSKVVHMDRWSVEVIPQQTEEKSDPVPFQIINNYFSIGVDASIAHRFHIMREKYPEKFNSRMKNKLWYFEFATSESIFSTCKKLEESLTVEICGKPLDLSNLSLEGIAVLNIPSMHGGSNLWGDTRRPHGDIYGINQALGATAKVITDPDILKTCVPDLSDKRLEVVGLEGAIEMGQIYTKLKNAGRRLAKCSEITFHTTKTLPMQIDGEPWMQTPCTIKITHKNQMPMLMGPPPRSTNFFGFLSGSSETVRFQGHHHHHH
T2 sequence (Q13574 with tags, fused parts or gaps isoform Q13574-4): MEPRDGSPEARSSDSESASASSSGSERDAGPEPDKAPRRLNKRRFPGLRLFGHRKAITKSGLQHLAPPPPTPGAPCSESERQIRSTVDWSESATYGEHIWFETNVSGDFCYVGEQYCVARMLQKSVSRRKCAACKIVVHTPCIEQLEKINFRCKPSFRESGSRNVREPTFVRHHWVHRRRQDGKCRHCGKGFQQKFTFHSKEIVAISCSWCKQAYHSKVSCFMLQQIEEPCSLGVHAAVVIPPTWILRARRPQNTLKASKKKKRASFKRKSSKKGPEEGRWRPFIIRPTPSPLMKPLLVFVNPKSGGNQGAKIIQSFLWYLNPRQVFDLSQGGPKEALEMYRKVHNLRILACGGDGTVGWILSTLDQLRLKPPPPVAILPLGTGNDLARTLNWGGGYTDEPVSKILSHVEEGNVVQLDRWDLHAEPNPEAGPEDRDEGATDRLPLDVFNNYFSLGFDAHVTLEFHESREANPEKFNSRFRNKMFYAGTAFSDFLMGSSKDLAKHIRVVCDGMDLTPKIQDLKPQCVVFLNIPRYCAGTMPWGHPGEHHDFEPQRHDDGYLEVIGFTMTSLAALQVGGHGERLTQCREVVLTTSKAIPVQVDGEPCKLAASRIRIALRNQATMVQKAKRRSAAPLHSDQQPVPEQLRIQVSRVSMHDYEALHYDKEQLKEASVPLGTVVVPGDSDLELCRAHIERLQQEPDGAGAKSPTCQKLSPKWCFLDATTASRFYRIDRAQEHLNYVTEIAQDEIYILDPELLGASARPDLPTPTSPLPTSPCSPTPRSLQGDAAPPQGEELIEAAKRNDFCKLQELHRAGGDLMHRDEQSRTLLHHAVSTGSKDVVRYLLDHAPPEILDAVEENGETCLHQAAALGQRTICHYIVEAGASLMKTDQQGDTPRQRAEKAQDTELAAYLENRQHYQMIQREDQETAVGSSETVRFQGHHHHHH

The term IC50 denotes the concentration needed to halve the response being measured. Broadly, the EC50 is the concentration giving half of the maximal effect. `C[C@@H]1CN(c2c(C#N)c(=O)n(C)c3ccc(C#N)nc23)[C@@H](C)CN1C(c1ccc(F)cc1)c1cnn(C)c1` (stereo partly drawn) [Example 847]: the concentration for half-maximal inhibition (IC50) is 22 µM in assay [1] and 7.4 µM in assay [3]. Moreover, the concentration for a half-maximal effect (EC50) in assay [2] is 5 µM.
`C[C@@H]1CN(c2c(C#N)c(=O)n(C)c3ccc(C#N)nc23)[C@@H](C)CN1C(c1ccc(F)cc1)c1cncn1C` (stereo partly drawn) [Example 848]: the figures for the half-inhibitory concentration (IC50) in assay [1] and in assay [3] were 230 µM and 100 µM, respectively. In addition, the concentration giving a half-maximal response (EC50) in assay [2] (Homo sapiens, 24 h) was found to be 20 µM.
`C[C@@H]1CN(c2c(C#N)c(=O)n(C)c3ccc(C#N)nc23)[C@@H](C)CN1C(c1ccc(F)cc1)c1cncn1C` (stereo partly drawn) [Example 849]: the IC50 in assay [1] is more than 250 µM; in assay [3], 130 µM. Further, the EC50 in assay [2] stood at 20 µM.
As for `Cc1ccc(C(c2ccc(C)cc2)N2CCN(c3c(C#N)c(=O)n(C)c4ccc(C#N)nc34)C[C@H]2C)cc1` [Example 870], the figures for the IC50 in assay [1] and in assay [3] were 2.5 µM and 0.31 µM, respectively. The EC50 in assay [2] (Homo sapiens, 24 h) amounted to 1.4 µM.
Regarding `CCc1ccccc1C(c1ccc(F)cc1)N1CCN(c2c(C#N)c(=O)n(C)c3ccc(C#N)nc23)C[C@H]1C` (stereo partly drawn) [Example 876], the IC50 in assay [1] turned out to be 2.4 µM; in assay [3], 0.51 µM. The EC50 in assay [2] was determined as 2.2 µM.
Consider `CCc1ccccc1C(c1ccc(F)cc1)N1CCN(c2c(C#N)c(=O)n(C)c3ccc(C#N)nc23)C[C@H]1C` (stereo partly drawn) [Example 877], for which the IC50 in assay [1] came out at 5.1 µM; in assay [3], 0.24 µM. In addition, the EC50 in assay [2] came out at 6 µM.
On the same counts, the results for `C[C@@H]1CN(c2c(C#N)c(=O)n(C)c3ccc(C#N)nc23)CCN1C(c1ccc(F)cc1)c1cccc(F)c1` (stereo partly drawn) [Example 880] are 6.5 µM, 2.5 µM and 20 µM.
Consider `C[C@@H]1CN(c2c(C#N)c(=O)n(C)c3ccc(C#N)nc23)CCN1C(c1ccc(F)cc1)c1cccc(F)c1` (stereo partly drawn) [Example 881], for which the results for the IC50 in assay [1] and in assay [3] were 5.3 µM and 3 µM, respectively. Also, the concentration for a half-maximal effect (EC50) in assay [2] amounted to 2.1 µM.
Taken in the same sequence, the figures for `C[C@@H]1CN(c2c(C#N)c(=O)n(C)c3ccc(C#N)nc23)CCN1C(c1ccc(F)cc1)c1ccccc1F` (stereo partly drawn) [Example 882] were 0.82 µM, 0.96 µM and 1.7 µM.
On the same counts, the results for `C[C@@H]1CN(c2c(C#N)c(=O)n(C)c3ccc(C#N)nc23)CCN1C(c1ccc(F)cc1)c1ccccc1F` (stereo partly drawn) [Example 883] are 1.5 µM, 0.84 µM and 0.83 µM.
For the compound `CCc1ccc(C(c2ccc(F)cc2)N2CCN(c3c(C#N)c(=O)n(C)c4ccc(C#N)nc34)C[C@H]2C)cc1` (stereo partly drawn) [Example 884], the half-inhibitory concentration (IC50) in assay [1] amounted to 4.6 µM; in assay [3] it was 2.4 µM. Moreover, in assay [2] (Homo sapiens, 24 h), the EC50 came out at 2.2 µM.
As for `CCc1ccc(C(c2ccc(F)cc2)N2CCN(c3c(C#N)c(=O)n(C)c4ccc(C#N)nc34)C[C@H]2C)cc1` (stereo partly drawn) [Example 885], the IC50 in assay [1] stood at 3 µM; in assay [3], 1.2 µM. The EC50 in assay [2] is 2.4 µM.
Consider `Cc1ccc(C(c2ccc(F)cc2)N2CCN(c3c(C#N)c(=O)n(C)c4ccc(C#N)nc34)C[C@H]2C)cc1` (stereo partly drawn) [Example 888], for which the IC50 came to 0.51 µM in assay [1] and 0.33 µM in assay [3]. In addition, the half-maximal effective concentration (EC50) in assay [2] (Homo sapiens, 24 h) stood at 1.2 µM.
Take `Cc1ccc(C(c2ccc(F)cn2)N2CCN(c3c(C#N)c(=O)n(C)c4ccc(C#N)nc34)C[C@H]2C)cc1` (stereo partly drawn) [Example 898]: the IC50 in assay [1] worked out at 0.34 µM; in assay [3] it was 0.7 µM. Besides, in assay [2], the EC50 was 0.48 µM.
Taken in the same sequence, the figures for `Cc1ccc(C(c2ccc(F)cn2)N2CCN(c3c(C#N)c(=O)n(C)c4ccc(C#N)nc34)C[C@H]2C)cc1` (stereo partly drawn) [Example 899] were 0.63 µM, 1.7 µM and 0.99 µM.
On the same counts, the results for `C[C@@H]1CN(c2c(C#N)c(=O)n(C)c3ccc(C#N)nc23)CCN1C(c1ccc(F)cc1)c1ccc(F)cn1` (stereo partly drawn) [Example 902] are 0.25 µM, 2.6 µM and 2.2 µM.
Taken in the same sequence, the figures for `Cc1cccc(C(c2ccc(F)cc2)N2CCN(c3c(C#N)c(=O)n(C)c4ccc(C#N)nc34)C[C@H]2C)c1` (stereo partly drawn) [Example 917] were 6.1 µM, 0.7 µM and 0.85 µM.
Turning to `C[C@@H]1CN(c2c(C#N)c(=O)n(C)c3ccc(C#N)nc23)CCN1C(c1cccc(Cl)c1)c1ccc(F)cn1` (stereo partly drawn) [Example 926], the results for the concentration for half-maximal inhibition (IC50) in assay [1] and in assay [3] were 2.5 µM and 4 µM, respectively. The EC50 in assay [2] (Homo sapiens, 24 h) is 1.2 µM.
On the same counts, the results for `C[C@@H]1CN(c2c(C#N)c(=O)n(C)c3ccc(C#N)nc23)CCN1C(c1ccc(Cl)cc1)c1ccc(Cl)cn1` (stereo partly drawn) [Example 930] are 0.64 µM, 1.3 µM and 1.3 µM.
On the same counts, the results for `C[C@@H]1CN(c2c(C#N)c(=O)n(C)c3ccc(C#N)nc23)CCN1C(c1ccc(F)cc1)c1ccc(F)cc1F` (stereo partly drawn) [Example 946] are 0.59 µM, 0.73 µM and 0.68 µM.
For `CC(c1ccc(C#N)cc1)N1CCN(c2c(C#N)c(=O)n(C)c3ccc(C#N)nc23)C[C@H]1C` (stereo partly drawn) [Example 954], the IC50 in assay [1] was found to be 0.13 µM; in assay [3], 6.5 µM. The half-maximal effective concentration (EC50) in assay [2] (Homo sapiens, 24 h) was determined as 20 µM.
For `CC(c1ccc(C#N)cc1)N1CCN(c2c(C#N)c(=O)n(C)c3ccc(C#N)nc23)C[C@H]1C` (stereo partly drawn) [Example 955], the IC50 came out at 0.22 µM in assay [1] and 3 µM in assay [3]. The EC50 in assay [2] was 20 µM.
With `CC(c1ccc(F)c(F)c1)N1CCN(c2c(C#N)c(=O)n(C)c3ccc(C#N)nc23)C[C@H]1C` (stereo partly drawn) [Example 956], the results for the IC50 in assay [1] and in assay [3] were 0.78 µM and 7.5 µM, respectively. The EC50 in assay [2] (Homo sapiens, 24 h) was determined as 4 µM.
On the same counts, the results for `Cc1cccc(C(C)N2CCN(c3c(C#N)c(=O)n(C)c4ccc(C#N)nc34)C[C@H]2C)n1` (stereo partly drawn) [Example 964] are 1.9 µM, 32 µM and 13 µM.
For `Cc1cccc(C(C)N2CCN(c3c(C#N)c(=O)n(C)c4ccc(C#N)nc34)C[C@H]2C)n1` (stereo partly drawn) [Example 967], the results for the IC50 in assay [1] and in assay [3] were 2.8 µM and 51 µM, respectively. Besides, in assay [2], the EC50 amounted to 18 µM.
As to `COC(=O)c1ccc(C(C)N2CCN(c3c(C#N)c(=O)n(C)c4ccc(C#N)nc34)C[C@H]2C)cc1` (stereo partly drawn) [Example 981], the half-inhibitory concentration (IC50) in assay [1] worked out at 2.1 µM; in assay [3] it was 28 µM. For the same compound, the half-maximal effective concentration (EC50) in assay [2] (Homo sapiens, 24 h) came out at 13 µM.
On the same counts, the results for `C[C@@H]1CN(c2c(C#N)c(=O)n(C)c3ccc(C#N)nc23)CCN1Cc1ccc(F)c(F)c1` [Example 987] are 2.9 µM, 1.8 µM and 7.3 µM.
Take `Cc1cccc(CN2CCN(c3c(C#N)c(=O)n(C)c4ccc(C#N)nc34)C[C@H]2C)n1` [Example 988]: the IC50 in assay [1] is 2.8 µM; in assay [3], 5.3 µM. For the same compound, in assay [2] (Homo sapiens, 24 h), the EC50 was 20 µM.
Consider `C[C@@H]1CN(c2c(C#N)c(=O)n(C)c3ccc(C#N)nc23)CCN1Cc1cccc(C#N)n1` [Example 989], for which the concentration for half-maximal inhibition (IC50) in assay [1] is 5.2 µM; in assay [3], 32 µM. Further, in assay [2] (Homo sapiens, 24 h), the EC50 is 20 µM.
On the same counts, the results for `C[C@@H]1CN(c2c(C#N)c(=O)n(C)c3ccc(C#N)nc23)CCN1Cc1ccccn1` [Example 990] are 0.74 µM, 25 µM and 20 µM.
In the case of `C[C@@H]1CN(c2c(C#N)c(=O)n(C)c3ccc(C#N)nc23)CCN1Cc1cccc(C(F)(F)F)n1` [Example 991], the 50% inhibitory concentration (IC50) in assay [1] was 0.31 µM; in assay [3] it was 0.8 µM. The EC50 in assay [2] (Homo sapiens, 24 h) amounted to 11 µM.

(Values after patent US10669272B2, “Substituted naphthyridinone compounds useful as T cell activators” (BRISTOL-MYERS SQUIBB COMPANY, priority 2018, dated 2020).)
